{"source": "patent US7732602B2", "about": "“Herbicide composition” (Sumitomo Chemical Company, Limited, priority 2001, dated 2010)", "assay_type_in_all_cases": "in vivo", "key": {"yellow nutsedge": {"system": "yellow nutsedge", "assay": "Herbicide effect, foliar spray on yellow nutsedge grown in pots (Test Example 1)", "design": "key: a level was taken “0” when completely or almost no difference was observed between the growth behavior of a test weed at the time of observation and that of untreated weed; a level was taken “10” when a test weed completely died or the growth of that was completely inhibited", "details": "5 days after treatment, levels 0-10", "method": "(§1) Evaluation of phytotoxicity against a crop was shown by “no” when almost no phytotoxicity was observed, “low” when a low level phytotoxicity was observed, “medium” when a medium level phytotoxicity was observed and “high” when a high level phytotoxicity was observed.\n(§2) A plastic pot of 11 cm in diameter and 8 cm in depth was filled with field soil. A tuber of yellow nutsedge was buried and grown in a greenhouse for 28 days.\n(§3) An emulsion of Compound A-1 was prepared by sufficiently mixing 5 parts of Compound A-1, 6 parts of Sorpol 3005X (surfactant, produced by Toho Chemical) and 89 parts of xylene.\n(§4) Each of • (a) single use of an emulsion of Compound A-1, • (b) single use of a solution of Glyphosate isopropylamine salt (commercial name: Roundup, produced by Nippon Monsanto, containing 41% of Glyphosate isopropylamine salt), • (c) single use of a solution of Gltfosinate-Ammonium (commercial name: Basta, produced by Hoechst Schering AgrEvo GmbH, containing 18.5% of Glufosinate-Ammonium), • (d) a mixed composition of an emulsion of Compound A-1 and a solution of Glyphosate isopropylamine salt, and • (e) a mixed composition of an emulsion of Compound A-1 and a solution of Glufosinate-Ammonium were diluted with water containing 1% Agri-dex (produced by Helena). Respective dilutions were uniformly sprayed from upper side onto foliages of yellow nutsedge grown as described above with a small sprayer such that the amounts of the active ingredients were the amounts shown in Table 4. Immediately after the treatment with the test compounds, seeds of corn, soybean and cotton were sown.\n(§5) After the treatment, they were raised in a greenhouse for 5 days and the effect against weeds was evaluated. In addition, after 14 days of the treatment, the phytotoxicity to corn, soybean and cotton was evaluated."}, "corn": {"system": "corn", "assay": "Phytotoxicity to corn sown immediately after treatment (Test Example 1)", "design": "key: “no” when almost no phytotoxicity was observed; “low” when a low level phytotoxicity was observed; “medium” when a medium level phytotoxicity was observed; “high” when a high level phytotoxicity was observed", "details": "14 days after treatment", "method": "as §1, §2, §3, §4, §5"}, "cotton": {"system": "cotton", "assay": "Phytotoxicity to cotton sown immediately after treatment (Test Example 1)", "design": "key: “no” when almost no phytotoxicity was observed; “low” when a low level phytotoxicity was observed; “medium” when a medium level phytotoxicity was observed; “high” when a high level phytotoxicity was observed", "details": "14 days after treatment", "method": "as §1, §2, §3, §4, §5"}, "soybean": {"system": "soybean", "assay": "Phytotoxicity to soybean sown immediately after treatment (Test Example 1)", "design": "key: “no” when almost no phytotoxicity was observed; “low” when a low level phytotoxicity was observed; “medium” when a medium level phytotoxicity was observed; “high” when a high level phytotoxicity was observed", "details": "14 days after treatment", "method": "as §1, §2, §3, §4, §5"}}, "note": "Structures can show the parent of a compound that is named as a salt."}
{"smiles": "O=C(O)CNCP(=O)(O)O", "note": "[Glyphosate Isopropylamine Salt, N-(phosphonomethyl)glycine]", "values": [{"measurement": "Herbicide Effect", "setting": "yellow nutsedge; 200 g/ha", "result": 0}, {"measurement": "Herbicide Effect", "setting": "yellow nutsedge; 1000 g/ha", "result": 0}, {"measurement": "Phytotoxicity Cr", "setting": "corn; 200 g/ha", "result": "no"}, {"measurement": "Phytotoxicity Cr", "setting": "corn; 1000 g/ha", "result": "no"}, {"measurement": "Phytotoxicity Ct", "setting": "cotton; 200 g/ha", "result": "no"}, {"measurement": "Phytotoxicity Ct", "setting": "cotton; 1000 g/ha", "result": "no"}, {"measurement": "Phytotoxicity Be", "setting": "soybean; 200 g/ha", "result": "no"}, {"measurement": "Phytotoxicity Be", "setting": "soybean; 1000 g/ha", "result": "no"}]}
{"smiles": "CP(=O)(O)CCC(N)C(=O)O.N", "note": "(racemic) [Glufosinate-Ammonium, ammonium DL-homoalanin-4-yl(methyl)phosphinate]", "values": [{"measurement": "Herbicide Effect", "setting": "yellow nutsedge; 100 g/ha", "result": 0}, {"measurement": "Herbicide Effect", "setting": "yellow nutsedge; 500 g/ha", "result": 2}, {"measurement": "Phytotoxicity Cr", "setting": "corn; 100 g/ha", "result": "no"}, {"measurement": "Phytotoxicity Cr", "setting": "corn; 500 g/ha", "result": "no"}, {"measurement": "Phytotoxicity Ct", "setting": "cotton; 100 g/ha", "result": "no"}, {"measurement": "Phytotoxicity Ct", "setting": "cotton; 500 g/ha", "result": "no"}, {"measurement": "Phytotoxicity Be", "setting": "soybean; 100 g/ha", "result": "no"}, {"measurement": "Phytotoxicity Be", "setting": "soybean; 500 g/ha", "result": "no"}]}
